Reference: the supplement of paper PMC10307832

Columns and labels:
Assay in all cases: relative viability (nuclei count vs DMSO), 5 days (fraction); higher = more cells survive
AZD8055 + Decitabine = compound: COc1ccc(-c2ccc3c(N4CCOC[C@@H]4C)nc(N4CCOC[C@@H]4C)nc3n2)cc1CO [AZD8055] + Nc1ncn([C@H]2C[C@H](O)[C@@H](CO)O2)c(=O)n1 [Decitabine] (partner 2 µM)
Procedure, shortened: (§1)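 Lung cancer cell lines in 1536-well plates got either a single drug or a fixed anchor-drug dose together with five library-drug doses (not always all listed) in √10 steps, by pin tool, on the day after seeding. Nuclei were counted after 5 days, and relative viability is the treated-to-vehicle ratio of nuclei counts. Values are medians of duplicate plates.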

AZD8055 + Lapatinib = compound: COc1ccc(-c2ccc3c(N4CCOC[C@@H]4C)nc(N4CCOC[C@@H]4C)nc3n2)cc1CO [AZD8055] + CS(=O)(=O)CCNCc1ccc(-c2ccc3ncnc(Nc4ccc(OCc5cccc(F)c5)c(Cl)c4)c3c2)o1 [Lapatinib] (partner 2 µM)
Procedure, shortened: as §1

AZD8055 + AZD7762 = compound: COc1ccc(-c2ccc3c(N4CCOC[C@@H]4C)nc(N4CCOC[C@@H]4C)nc3n2)cc1CO [AZD8055] + NC(=O)Nc1cc(-c2cccc(F)c2)sc1C(=O)N[C@H]1CCCNC1 [AZD7762] (partner 0.2 µM)
Procedure, shortened: as §1

AZD8055 + Bortezomib = compound: COc1ccc(-c2ccc3c(N4CCOC[C@@H]4C)nc(N4CCOC[C@@H]4C)nc3n2)cc1CO [AZD8055] + CC(C)C[C@H](NC(=O)[C@H](Cc1ccccc1)NC(=O)c1cnccn1)B(O)O [Bortezomib] (partner 0.002 µM)
Procedure, shortened: as §1

Row | Cell Line | relative viability (AZD8055 + Decitabine; first compound 0.01 µM) | relative viability (AZD8055 + Decitabine; first compound 0.03162 µM) | relative viability (AZD8055 + Decitabine; first compound 0.1 µM) | relative viability (AZD8055 + Decitabine; first compound 0.3162 µM) | relative viability (AZD8055 + Decitabine; first compound 1 µM) | relative viability (AZD8055 + Lapatinib; first compound 0.01 µM) | relative viability (AZD8055 + Lapatinib; first compound 0.03162 µM) | relative viability (AZD8055 + Lapatinib; first compound 0.1 µM) | relative viability (AZD8055 + Lapatinib; first compound 0.3162 µM) | relative viability (AZD8055 + Lapatinib; first compound 1 µM) | relative viability (AZD8055 + AZD7762; first compound 0.01 µM) | relative viability (AZD8055 + AZD7762; first compound 0.03162 µM) | relative viability (AZD8055 + AZD7762; first compound 0.1 µM) | relative viability (AZD8055 + AZD7762; first compound 0.3162 µM) | relative viability (AZD8055 + AZD7762; first compound 1 µM) | relative viability (AZD8055 + Bortezomib; first compound 0.01 µM) | relative viability (AZD8055 + Bortezomib; first compound 0.03162 µM) | relative viability (AZD8055 + Bortezomib; first compound 0.1 µM) | relative viability (AZD8055 + Bortezomib; first compound 0.3162 µM) | relative viability (AZD8055 + Bortezomib; first compound 1 µM)
1 | NCI-H1993 | 0.49 | 0.488 | 0.49 | 0.444 | 0.386 | 0.685 | 0.766 | 0.75 | 0.668 | 0.672 | 0.646 | 0.377 | 0.402 | 0.366 | 0.516 | 0.886 | 0.706 | 0.599 | 0.568 | 0.586
2 | NCI-H2085 | 0.576 | 0.512 | 0.379 | 0.456 | 0.426 | 0.899 | 0.514 | 0.384 | 0.334 | 0.341 | 0.994 | 0.848 | 0.706 | 0.409 | 0.362 | 1.11 | 0.859 | 0.705 | 0.407 | 0.357
3 | NCI-H2087 | 0.28 | 0.182 | 0.236 | 0.153 | 0.113 | 1.01 | 0.932 | 0.826 | 0.581 | 0.435 | 1.37 | 1.36 | 1.33 | 0.654 | 0.478 | 0.783 | 0.992 | 0.796 | 0.441 | 0.252
4 | NCI-H2126 | 0.623 | 0.499 | 0.485 | 0.434 | 0.331 | 0.653 | 0.679 | 0.615 | 0.453 | 0.425 | 1.03 | 1.07 | 0.902 | 0.587 | 0.508 | 1.14 | 1.08 | 1.05 | 0.676 | 0.638
5 | NCI-H2347 | 0.625 | 0.533 | 0.533 | 0.495 | 0.374 | 0.89 | 0.825 | 0.823 | 0.498 | 0.408 | 0.781 | 0.614 | 0.633 | 0.449 | 0.281 | 0.704 | 0.944 | 0.598 | 0.438 | 0.401
6 | NCI-H2405 | 0.79 | 0.715 | 0.593 | 0.363 | 0.339 | 1.03 | 0.955 | 0.858 | 0.395 | 0.292 | 0.832 | 0.779 | 0.621 | 0.324 | 0.313 | 1 | 0.975 | 0.906 | 0.46 | 0.414
7 | NCI-H3122 | 0.442 | 0.341 | 0.3 | 0.149 | 0.129 | 1.09 | 1.14 | 1.04 | 0.79 | 0.589 | 1.13 | 1.01 | 0.594 | 0.351 | 0.187 | 1.14 | 0.998 | 1.09 | 0.728 | 0.657
8 | PC-3 [JPC-3] | 0.902 | 0.912 | 0.797 | 0.758 | 0.614 | 0.392 | 0.393 | 0.333 | 0.322 | 0.302 | 0.772 | 0.681 | 0.728 | 0.37 | 0.399 | 0.911 | 0.872 | 0.83 | 0.687 | 0.555
9 | PC-14 | 0.288 | 0.227 | 0.238 | 0.186 | 0.159 | 0.315 | 0.204 | 0.244 | 0.16 | 0.148 | 0.458 | 0.394 | 0.294 | 0.147 | 0.102 | 1.13 | 1.05 | 0.737 | 0.272 | 0.246
10 | RERF-LC-KJ | 0.589 | 0.68 | 0.666 | 0.383 | 0.395 | 0.895 | 0.726 | 0.637 | 0.437 | 0.345 | 1.26 | 1.08 | 0.659 | 0.402 | 0.434 | 1.18 | 0.921 | 0.748 | 0.528 | 0.569
